In the assay the test system is sheep PDCs. The assay is described as follows: ALP activity of predifferentiated chondrocytes cultured on CPP substrates.

Consider `N[C@@H](Cc1cc(I)c(Oc2ccc(O)c(I)c2)c(I)c1)C(=O)O` [T3, triiodothyronine], for which the ALP activity entry (3 nM T3, absence of dexamethasone, 1 week on CPP substrates) is reported as “maximized”. Further, the “ALP activity level over 2 week culture” value (continuous 3 nM T3 treatment, maintained up to day 14) is “significantly increased by day 4”.

Values taken from patent US10195044B2, “Intervertebral disc implant” (Sinai Health System, priority 2013, dated 2019).
